For test [1], the target named is T1, LmxCLK1 (Leishmania mexicana, UniProt E9AMP2).
T1 sequence (E9AMP2 1-422): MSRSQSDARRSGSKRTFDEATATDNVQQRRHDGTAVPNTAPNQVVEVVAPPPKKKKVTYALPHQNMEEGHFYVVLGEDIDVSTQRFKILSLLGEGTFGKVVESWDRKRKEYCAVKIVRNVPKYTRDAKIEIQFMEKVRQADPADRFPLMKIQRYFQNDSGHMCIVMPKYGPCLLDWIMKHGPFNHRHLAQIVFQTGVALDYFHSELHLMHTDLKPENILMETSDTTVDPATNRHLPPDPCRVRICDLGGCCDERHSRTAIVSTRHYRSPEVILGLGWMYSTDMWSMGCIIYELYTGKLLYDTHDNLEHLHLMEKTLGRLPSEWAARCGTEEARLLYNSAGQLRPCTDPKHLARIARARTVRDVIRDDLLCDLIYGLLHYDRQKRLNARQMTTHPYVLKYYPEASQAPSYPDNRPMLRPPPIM
Kind of test: biochemical. It is filed as binding.

In test [2] the target is T1, LmxCLK1. Put plainly: HTRF (TR-FRET) enzymatic inhibition assay. Format: biochemical. As to the method: The enzymatic activity of full-length LmxCLK1 was monitored using a homogenous time-resolved fluorescence (HTRF)-based assay (HTRF KinEASE-STK S3 kit, Cisbio - catalog #62ST3PEC). For IC50 value determination, the data from two independent experiments performed in duplicate were fitted to the sigmoidal dose-response (variable slope) equation available in GraphPad Prism (v. 9.1.0). Detailed information for IC50 determination can be found in the Supplementary Information. […]
min at 4 °C. The supernatants were loaded onto an immobilized metal affinity chromatography (IMAC) […]
column (5 mL HisTrap FF Crude, GE Healthcare) and washed in Binding Buffer containing 30 mM imidazole.
Proteins were eluted in Binding Buffer with 300 mM imidazole. To remove the N-terminal 6xHis-tag […]
introduced during cloning (see above), proteins were incubated with TEV protease during dialysis […]
overnight at 4 °C into Gel Filtration Buffer (20 mM HEPES, 500 mM NaCl, 5% glycerol, 0.5 mM TCEP).
Recombinant proteins were further purified using reverse affinity chromatography on Ni-Sepharose […]
followed by gel filtration (Superdex 200 16/60, GE Healthcare), and concentrated using 10 kDa molecular […]
weight cut-off centrifugal concentrators (Millipore). LmxCLK1 (CQMED clone ID LmxCLK1-cb001) and […]
NLuc-LmxCLK1 (CQMED clone ID LmxCLK1-cb021) proteins were stored at -80 °C for in vitro biochemical […]
assays at 0.5 mg/mL and 0.7 mg/mL, respectively, measured by UV absorbance with a NanoDrop […]
spectrophotometer (Thermo Scientific), using the calculated molecular weight and estimated extinction […]
Purified proteins were further analyzed by LC-ESI-MS in a XEVO G2 Sx Q-ToF (Waters). Expected intact […]
masses for LmxCLK1 (CQMED clone ID LmxCLK1-cb001) and NLuc-LmxCLK1 (CQMED clone ID LmxCLK1- […]
cb021) were: 48,791.14 Da and 68,411.71 Da, respectively.
We monitored the activity of recombinantly produced full-length LmxCLK1 (CQMED clone ID LmxCLK1- […]
cb001) using a commercially-available homogenous time-resolved fluorescence (HTRF)-based assay (HTRF […]
KinEASE-STK S3 kit, Cisbio - catalog #62ST3PEC). Assay development included establishing reaction […]
parameters (optimal enzyme concentration, ATP concentration and reaction time).
(15-point, 3-fold serial dilution and a highest final assay concentration of 10 µM) prior to transfer (100 nL) […]
to a black, 384-well, round bottom, low-volume plate (Corning catalog #4514) containing a mixture of […]
LmxCLK1 and peptide substrate in kinase buffer using an automated liquid transferring system (CYBIO […]
FeliX®, Analytik Jena, Jena, Germany). […]
started by the addition of ATP and allowed to proceed for 75 min at 30 °C. Final concentrations for reaction […]
components were: 6 nM LmxCLK1, 66 µM ATP (10× KM,ATP), 1 µM peptide (STK Substrate 3-biotin, Cisbio).
All components were prepared in 1× Enzymatic Buffer (Cisbio) supplemented with 5 mM MgCl2, 1 mM […]
DTT, 0.01% Tween-20. The reaction was stopped by the addition of Detection Buffer containing EDTA, […]
Fluorescence signal was measured using a CLARIOstar microplate reader (BMG LABTECH) with excitation […]
at 330 nm, emission at 665 nm (acceptor) and 620 nm (donor), integration delay 60 μs and integration […]
time 400 μs. All reactions were done in duplicate and two independent experiments were performed.
Enzyme activity was expressed as the background-corrected HTRF ratio of the acceptor and donor […]
emission signals according to equation [1]:
(also on this page, place not known: imi dazole. Ni -Sepharose background -corrected (665/620)=3Acceptor!!"#$ −backgroundD.10,000 Downloaded from http://pubs.acs.org/aidcbc/article-supplement/3662943/pdf/id5c00610_si_001/ by guest on 07 August 2026) […]
where background is the background fluorescence obtained in the absence of enzyme (blank).
To determine IC50 values, the background-corrected HTRF ratio was plotted as a function of test
On the technique in general: In TR-FRET formats the signal depends on donor and acceptor labels being close together.

In test [3] the target is NLuc::LmxCLK1 (Leishmania mexicana, UniProt E9AMP2). Put plainly: cell-based. The following applies: for receptor occupancy at 10 µM: read-out: Target occupancy Average. Format: cell-based. The gist of the method:
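NanoBRET tracer displacement in live cells expressing NLuc-tagged CLK1, test compounds at 10 µM fixed, 1% DMSO final. Acceptor/donor emission (610/460 nm) ratio gives mBRET, converted to blank-corrected probe occupancy (%); probe KD from single-site saturation binding fits.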

The mark [4] stands for this setting: purified LmxCLK1, 30-min pre-incubation, 66 µM ATP, read-out: IC50 enzymatic inhibition of LmxCLK1.

Where two headings read alike, the source gives them in different places.

The ΔTm is the change in melting temperature against a reference sample. A word on the IC50: it is the concentration at which inhibition is half-maximal. Take `Cc1ccc(C(=O)Nc2ccc(CN3CCN(C)CC3)c(C(F)(F)F)c2)cc1C#Cc1cnc2[nH]ncc2c1` [GZD824]: the ΔTm at 10 µM was determined as 17.1 °C in test [1] (DSF, 10 µM compound, 2 µM LmxCLK1, Run 1, read-out: ΔTm Run 1); 17.7 °C in test [1] (DSF, 10 µM compound, 2 µM LmxCLK1, Run 2, read-out: ΔTm Run 2); 17.4 ± 0.3 °C in test [1] (DSF, 10 µM compound, 2 µM LmxCLK1, mean of two runs, read-out: ΔTm Average). Besides, the concentration for half-maximal inhibition (IC50) turned out to be 0.0299 µM in test [2] (IC50 enzymatic inhibition of LmxCLK1, purified LmxCLK1, 30-min pre-incubation, 66 µM ATP) and 4.6 µM in test [3]. Besides, the receptor occupancy at 10 µM in test [3] was 46.5 ± 3.2%.

For `C=CC(=O)Nc1cccc(Oc2nc(Nc3ccc(N4CCN(C)CC4)cc3)ncc2Cl)c1` [WZ3146], the values for the shift in melting temperature (ΔTm) at 10 µM in test [1] (read-out: ΔTm Average), in test [1] (read-out: ΔTm Run 1) and in test [1] (read-out: ΔTm Run 2) were 14.3 ± 0.1 °C, 14.2 °C and 14.4 °C, respectively. The IC50 in test [2] (setting [4]) came out at 0.34 µM; in test [3], 13.6 µM. Moreover, the receptor occupancy at 10 µM in test [3] was found to be 35.2 ± 3.3%.

Take `C=CC(=O)Nc1cccc(Sc2nc(Nc3ccc(N4CCN(C)CC4)cc3)ncc2Cl)c1` [WZ8040]: the ΔTm at 10 µM in test [1] (read-out: ΔTm Average) stood at 14.8 ± 0.1 °C; in test [1] (read-out: ΔTm Run 1), 14.7 °C; in test [1] (read-out: ΔTm Run 2), 15 °C. Moreover, the half-inhibitory concentration (IC50) in test [2] (pre-incubation 0 min, read-out: Time-dependent IC50) was 1.66 µM; in test [2] (pre-incubation 5 min, read-out: Time-dependent IC50), 0.94 µM; in test [2] (pre-incubation 10 min, read-out: Time-dependent IC50), 0.911 µM; in test [2] (pre-incubation 15 min, read-out: Time-dependent IC50), 0.862 µM; in test [2] (pre-incubation 30 min, read-out: Time-dependent IC50) it was 0.759 µM; in test [2] (setting [4]) it was 0.204 µM. Also, the 50% inhibitory concentration (IC50) in test [3] amounted to 2.9 µM. For the same compound, the receptor occupancy at 10 µM in test [3] amounted to 60.8 ± 0.8%.

(Values after paper PMC7619385 (ACS infectious diseases, 2025).)
